This assay concerns the target T1, delta opioid receptor (DOR) (Homo sapiens, UniProt P41143).
T1 construct: gene OPRD1
The assay can be described thus: biochemical.

Molecules are shown by their SMILES.

T1 sequence (P41143 whole entry): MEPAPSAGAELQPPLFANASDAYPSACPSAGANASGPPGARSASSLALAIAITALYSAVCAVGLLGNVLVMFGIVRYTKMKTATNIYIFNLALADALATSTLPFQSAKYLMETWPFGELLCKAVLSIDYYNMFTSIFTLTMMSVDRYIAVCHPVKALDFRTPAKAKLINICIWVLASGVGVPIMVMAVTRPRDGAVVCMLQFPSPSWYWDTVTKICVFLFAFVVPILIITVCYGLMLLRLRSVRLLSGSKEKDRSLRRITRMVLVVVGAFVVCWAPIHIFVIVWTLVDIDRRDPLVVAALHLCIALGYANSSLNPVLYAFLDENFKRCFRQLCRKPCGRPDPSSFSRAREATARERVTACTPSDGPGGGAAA

What is called IC50 is the midpoint of a concentration-inhibition curve. Low readings indicate inhibition by little substance, high ones a need for much substance. The compound `CCN(CC)C(=O)c1ccc([C@H](c2cccc(OC)c2)N2C[C@@H](C)OC[C@@H]2C)cc1` [WB3] came in with an IC50 of 3.47 µM.

The record behind these values is publication PMC11421850, “Identification of pharmacological inducers of a reversible hypometabolic state for whole organ preservation” (eLife, 2024).
